The record followed here is patent US20120001065A1, “EVALUATING RENAL FUNCTION” (Mayo Foundation for Medical Education and Rsearch, priority 2009, published 2012).

The nature of data set [1]: GFR and ERPF-Long Renal Clearance (iothalamate and PAH continuous infusion): iothalamate concentration and GFR. The data set is classed as in vivo. Set-up: CE GFR / MS GFR: unit not given here. Conditions: one human subject; for CE GFR: corrected GFR per collection period from CE-UV; for CE GFR / MS GFR / Urine iothalamate concentration, CE / Urine iothalamate concentration, MS: continuous infusion; for MS GFR: corrected GFR per collection period from LC-MS/MS; for Plasma iothalamate concentration, CE / Plasma iothalamate concentration, MS: timed plasma collections P1-P6, continuous intravenous infusion; for Plasma iothalamate concentration, CE / Urine iothalamate concentration, CE: CE-UV; for Plasma iothalamate concentration, MS / Urine iothalamate concentration, MS: LC-MS/MS; for Urine iothalamate concentration, CE / Urine iothalamate concentration, MS: timed urine collections U1-U5. The protocol:
For example, GFR can be calculated according to Formula I.
where UIoth is the concentration of iothalamate in urine, V is the urine flow rate (volume per unit of time), and PIoth is the plasma concentration during the urine collection period.
For the simultaneous determination of GFR and ERPF, iothalamate (Conray®, Mallinckrodt Inc. St. Louis, Mo.) and PAH (Aminohippurate Sodium, Merck & Co. Inc. Whitehouse Station, N.J.) were administered intravenously to one human subject. Iothalamate and PAH were administered using previously described constant infusion protocol. […] Blood samples were collected in tubes containing heparin or EDTA. Blood samples were centrifuged at 650 g for 7 minutes to separate plasma. Plasma was collected and stored at 4° C. to 8° C. Urine samples were collected and stored at 4° C. to 8° C. Frozen plasma and urine samples were thawed and stored at 4° C. to 8° C. until analysis.
The timed plasma collections (100 μL of each) were processed independently by diluting 1:3 with water followed by the addition of internal standard, D3-iothalamate and D4-PAH (20 μL of 38 μg/mL stock). The urine samples were diluted 1:10 with water and followed by the addition of internal standard, D3-iothalamate. All urine and plasma samples were then subjected to acetonitrile and/or 70% acetone polypeptide precipitation (100 μL) followed by centrifugation for 5 minutes at 650 g to remove/pellet protein. […]

Data set [2] can be described thus: GFR and ERPF-Long Renal Clearance (iothalamate and PAH continuous infusion): PAH concentration and ERPF. The format is in vivo. More on the design: CE ERPF / MS ERPF: unit not given here. Conditions: one human subject. The protocol: ERPF can be calculated according to Formula II.
Blood samples were collected in tubes containing heparin or EDTA. Blood samples were centrifuged at 650 g for 7 minutes to separate plasma. Plasma was collected and stored at 4° C. to 8° C. Urine samples were collected and stored at 4° C. to 8° C. Frozen plasma and urine samples were thawed and stored at 4° C. to 8° C. until analysis.
The urine samples were diluted 1:10 with water and followed by the addition of internal standard, D3-iothalamate. All urine and plasma samples were then subjected to acetonitrile and/or 70% acetone polypeptide precipitation (100 μL) followed by centrifugation for 5 minutes at 650 g to remove/pellet protein. […]

Where “and” joins values, the source holds several entries; their conditions need not be identical. Identical values can stand only once.

`CNC(=O)c1c(I)c(NC(C)=O)c(I)c(C(=O)O)c1I` [Iothalamate, iothalamate]: the “CE GFR” value was found to be 138 in data set [1] (collection period P1); 127 in data set [1] (collection period P2); 123 in data set [1] (collection period P3); 114 in data set [1] (collection period P4); 119 in data set [1] (collection period P5). In addition, the “MS GFR” value in data set [1] (collection period P1) was found to be 141; in data set [1] (collection period P2), 114; in data set [1] (collection period P3) it was 120; in data set [1] (collection period P4), 116; in data set [1] (collection period P5), 119. The “Plasma iothalamate concentration, CE” value stood at 11.645 µg/mL in data set [1] (plasma collection P1); 9.479 µg/mL in data set [1] (plasma collection P2); 8.341 µg/mL in data set [1] (plasma collection P3); 7.334 µg/mL in data set [1] (plasma collection P4); 6.869 µg/mL in data set [1] (plasma collection P5); 6.912 µg/mL in data set [1] (plasma collection P6). Also, the “Plasma iothalamate concentration, MS” value in data set [1] (plasma collection P1) was determined as 10.6 µg/mL; in data set [1] (plasma collection P2) it was 9.09 µg/mL; in data set [1] (plasma collection P3), 7.93 µg/mL; in data set [1] (plasma collection P4) it was 8.21 µg/mL; in data set [1] (plasma collection P5), 7.12 µg/mL; in data set [1] (plasma collection P6), 6.43 µg/mL. In addition, the “Urine iothalamate concentration, CE” value in data set [1] (urine collection U1) came out at 12.973 µg/mL; in data set [1] (urine collection U2) it was 9.189 µg/mL; in data set [1] (urine collection U3) it was 8.069 µg/mL; in data set [1] (urine collection U4), 7.716 µg/mL; in data set [1] (urine collection U5), 7.333 µg/mL. In addition, the “Urine iothalamate concentration, MS” value in data set [1] (urine collection U1) worked out at 12.4 µg/mL; in data set [1] (urine collection U2), 7.85 µg/mL; in data set [1] (urine collection U3) it was 8.09 µg/mL; in data set [1] (urine collection U4), 8.5 µg/mL; in data set [1] (urine collection U5) it was 7.21 µg/mL.
Turning to `Nc1ccc(C(=O)NCC(=O)O)cc1` [PAH, p-aminohippuric acid], the “MS ERPF” value in data set [2] (ERPF per collection period from LC-MS/MS, continuous infusion) is 586 and 514 and 532 and 602 and 566. Besides, the “CE ERPF” value in data set [2] (ERPF per collection period, CE, continuous infusion) is 574 and 534 and 523 and 615 and 543. Further, in data set [2] (timed plasma collections P1-P6, CE, continuous intravenous infusion), the “Plasma PAH concentration, CE” value is 17.755 µg/mL and 17.120 µg/mL and 17.740 µg/mL and 18.320 µg/mL and 18.000 µg/mL and 17.635 µg/mL. For the same molecule, the “Plasma PAH concentration, MS” value in data set [2] (timed plasma collections P1-P6, LC-MS/MS, continuous intravenous infusion) was 18.3 µg/mL and 18 µg/mL and 18.7 µg/mL and 18.9 µg/mL and 19.4 µg/mL and 17.9 µg/mL. For the same molecule, the “Urine PAH concentration, CE” value in data set [2] (timed urine collections U1-U5, CE, continuous infusion) was 97.620 µg/mL.
